# From patent publication US11584709B2, “Multitarget drug for treating diseases in mammals” (“PHARMENTERPRISES EURASIA” LIMITED LIABILITY COMPANY, priority 2017, dated 2023)
# pIC50: −log10 of the molar value.
# Experiments:
# [1] = system: diarrhea induced by castor oil; assay: Mouse model of diarrhea induced by castor oil; type: in vivo, Balb/c mice
# Description: Balb/c mice, which starved for 24 hours, were given castor oil intragastrically. Then the animals were encaged into individual cages with a bottom covered with white paper, and time before the onset of diarrhea was noted. The observation time is 4 hours (J Pharm Pharmacol. 2015 February; 67(2):244-54).
# [2] = Stability in blood plasma, mouse; type: in vitro ADME; conditions: for Content, % from the initial, Mean (n = 2): mouse blood plasma, 1 μM, 37° C.
# Description: (§1) Compound 1 at a concentration of 1 μM was incubated for 24 hours in the blood plasma of human and various animal species (rats, mice, guinea pigs, rabbits, horses, dogs, bull, pygmy hogs) at 37° C. Aliquots were taken at time points of 0, 0.25, 1, 2, 4, 8 and 24 hours. In the case of blood plasma of rabbits and monkeys, Compound 1 was incubated for 4 hours, and aliquots were taken at time points 0, 0.25, 1, 4. After the protein precipitation with acetonitrile, samples were analyzed by HPLC-MS/MS to determine the concentration of Compound 1. Verapamil was used as a stable control.
# [3] = Stability in blood plasma, rat; type: in vitro ADME; conditions: for Content, % from the initial, Mean (n = 2): rat blood plasma, 1 μM, 37° C.
# Description: as §1
# [4] = biological target: T1, cannabinoid receptor type 1 (CB1R) (Homo sapiens, UniProt P21554); assay: Activity of cannabinoid receptor type 1, CHO cells expressing CB1R; type: cell-based; conditions: agonist, control CP55940 (30 nM)
# T1 construct: expressed in transfected cells; host or cells: CHO cells
# Description: Compound 1 was dissolved in DMSO to a concentration of 100 mM; then the stock solution was serially diluted with DMSO. The maximum starting concentration of the substance is 100 μM. The effect was determined at 5 concentrations of the tested compounds, each concentration was studied twice. CHO cells expressing CB1R were used in the experiment, these cells were incubated with the test compound. CP55940 (30 nM) compound was used as the control. The activity of receptors was determined by the intracellular calcium concentration by the homogeneous time resolved fluorescence spectroscopy (Mol Pharmacol. 1995 September; 48(3):443-50).
# [5] = Stability in blood plasma, rabbit; type: in vitro ADME; conditions: for Content, % from the initial, Mean (n = 2): rabbit blood plasma, 1 μM, 37° C.
# Description: as §1
# [6] = system: imiquimod-induced ear psoriasis; assay: Mouse model of imiquimod-induced ear psoriasis; type: in vivo, female balb/c mice; conditions: for The gain in the thickness of the right (affected) ear relatively day 0: 0.3% ointment, M ± m, n = 10
# Description: Psoriasis was simulated in female balb/c mice by applying Aldar cream (5% imiquimod) on the inner side of the right ear daily 1 time per day for 10 days (J Immunol. 2009 May 1; 182(9):5836-45). Vaseline was applied to intact animals: 20 mg on the right ear.
# The assessment of the development of pathology was performed on 2nd, 4th, 6th, 8th and 10th day before the next application of Aldar cream by measuring the thickness of the left and right ears.
# [7] = system: NF-kB signaling pathway; assay: Activity of NF-kB signaling pathway, Jurkat lacZ reporter; type: cell-based; conditions: Homo sapiens; inhibitor; Jurkat T lymphocytes, β-galactosidase reporter, substrate FDG
# [8] = system: imiquimod-induced psoriasis on the back; assay: Mouse model of imiquimod-induced psoriasis on the back; type: in vivo; conditions: for The gain of the thickness of the back skin to the thickness before the start of the study: 0.3% ointment, M ± m, n = 10
# Description: Psoriasis was simulated in female balb/c mice by applying Aldar cream (5% imiquimod) on a previously shaved skin back area of 3×4 cm daily 1 time per day for 15 days (J Immunol. 2009 May 1; 182(9):5836-45). Intact animals were applied with vaseline: 120 mg per the shaved back area.
# The assessment of the development of pathology was performed on the 10th, 12th, 13th and 15th day before the next application of Aldar cream according to the index: the thickness of the skin fold on the back. The thickness of the skin fold on the back was measured with a Digimatic MK-25 micrometer (Mitutoyo, Japan).
# [9] = Stability in blood plasma, dog; type: in vitro ADME; conditions: 1 μM, 37° C.
# Description: as §1
# [10] = Pharmacokinetics in blood plasma after oral administration; type: in vivo; conditions: rats, 3 mg/kg, 24 hours sampling, HPLC-MS/MS, limit of quantitation 1 ng/ml
# Description: To confirm low systemic availability of Compound 1, the study pharmacokinetics and bioavailability of Compound 1 after oral administration to rats in a dose of 3 mg/kg was conducted. Sampling of blood from animals was performed at specified time points for 24 hours after the drug administration. The content of Compound 1 in plasma samples was analyzed by HPLC-MS/MS, the limit of quantitation was 1 ng/ml.
# T1 sequence (P21554 whole entry): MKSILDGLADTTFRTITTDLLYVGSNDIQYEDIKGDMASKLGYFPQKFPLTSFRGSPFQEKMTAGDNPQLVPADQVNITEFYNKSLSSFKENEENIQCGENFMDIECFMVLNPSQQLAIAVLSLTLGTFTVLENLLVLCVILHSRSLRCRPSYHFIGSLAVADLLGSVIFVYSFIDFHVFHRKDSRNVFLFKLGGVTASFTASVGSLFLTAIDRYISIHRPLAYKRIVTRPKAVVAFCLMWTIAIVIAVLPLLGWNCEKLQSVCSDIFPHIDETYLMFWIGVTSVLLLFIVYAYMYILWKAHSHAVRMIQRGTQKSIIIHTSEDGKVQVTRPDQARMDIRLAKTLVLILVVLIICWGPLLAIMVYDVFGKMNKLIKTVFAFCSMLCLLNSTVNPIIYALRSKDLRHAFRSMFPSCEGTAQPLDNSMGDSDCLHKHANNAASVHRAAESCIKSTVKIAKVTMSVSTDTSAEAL
structure (smiles),measurement,setting,value
"O=C(Cc1ccc(O)cc1)N[C@@H](Cc1ccccc1)C(=O)OCc1ccccc1 [Compound 1, benzyl (2S)-2-[2-(4-hydroxyphenyl)acetamido]-3-phenylpropanoate]",The time of onset of diarrhea,"[1]; 50 mg/kg, M ± m, n = 10, observation 4 hours",42.00 ± 3.43& min
same,increase of the time to the onset of diarrhea,[1]; summary of Table 6,2 times
same,hydrolysis in the blood plasma (in words),"[2]; blood plasma of mice, after 15 minutes",almost completely hydrolyzed
same,"Content, % from the initial, Mean (n = 2)",[2]; 0 hour,100%
same,"Content, % from the initial, Mean (n = 2)",[2]; 0.25 hour,0.00%
same,"Content, % from the initial, Mean (n = 2)",[2]; 1 hour,0.00%
same,"Content, % from the initial, Mean (n = 2)",[2]; 2 hour,0.00%
same,"Content, % from the initial, Mean (n = 2)",[2]; 4 hour,0.00%
same,"Content, % from the initial, Mean (n = 2)",[2]; 8 hour,0.00%
same,"Content, % from the initial, Mean (n = 2)",[2]; 24 hour,0.00%
same,hydrolysis in the blood plasma (in words),"[3]; blood plasma of rats, after 15 minutes",almost completely hydrolyzed
same,"Content, % from the initial, Mean (n = 2)",[3]; 0 hour,100%
same,"Content, % from the initial, Mean (n = 2)",[3]; 0.25 hour,0.00%
same,"Content, % from the initial, Mean (n = 2)",[3]; 1 hour,0.00%
same,"Content, % from the initial, Mean (n = 2)",[3]; 2 hour,0.00%
same,"Content, % from the initial, Mean (n = 2)",[3]; 4 hour,0.00%
same,"Content, % from the initial, Mean (n = 2)",[3]; 8 hour,0.00%
same,"Content, % from the initial, Mean (n = 2)",[3]; 24 hour,0.00%
same,pIC50,[4],5.48
same,hydrolysis in the blood plasma (in words),"[5]; blood plasma of rabbits, after 15 minutes",almost completely hydrolyzed
same,"Content, % from the initial, Mean (n = 2)",[5]; 0 hour,100%
same,"Content, % from the initial, Mean (n = 2)",[5]; 0.25 hour,0.00%
same,"Content, % from the initial, Mean (n = 2)",[5]; 1 hour,0.00%
same,"Content, % from the initial, Mean (n = 2)",[5]; 4 hour,0.00%
same,The gain in the thickness of the right (affected) ear relatively day 0,[6]; day 2,14.1%
same,The gain in the thickness of the right (affected) ear relatively day 0,[6]; day 4,22.1%
same,The gain in the thickness of the right (affected) ear relatively day 0,[6]; day 6,28.0%
same,The gain in the thickness of the right (affected) ear relatively day 0,[6]; day 8,19.4%
same,The gain in the thickness of the right (affected) ear relatively day 0,[6]; day 10,7.9%
same,reduction of the gain in the thickness of the right (affected) ear (in words),[6]; summary of table 1,to the level of intact animals
same,pIC50,[7],5.00
same,The gain of the thickness of the back skin to the thickness before the start of the study,[8]; day 10,23.1%
same,The gain of the thickness of the back skin to the thickness before the start of the study,[8]; day 12,19.9%
same,The gain of the thickness of the back skin to the thickness before the start of the study,[8]; day 13,20.5%
same,The gain of the thickness of the back skin to the thickness before the start of the study,[8]; day 15,22.4%
same,reduction of the gain of the thickness of the skin fold of the affected skin area,[8]; summary of table 2,2 times
same,"Content, % from the initial, Mean (n = 2)",[9]; 0 hour,100%
same,"Content, % from the initial, Mean (n = 2)",[9]; 0.25 hour,110%
same,"Content, % from the initial, Mean (n = 2)",[9]; 1 hour,79.1%
same,"Content, % from the initial, Mean (n = 2)",[9]; 2 hour,80.6%
same,"Content, % from the initial, Mean (n = 2)",[9]; 4 hour,67.2%
same,"Content, % from the initial, Mean (n = 2)",[9]; 8 hour,54.1%
same,"Content, % from the initial, Mean (n = 2)",[9]; 24 hour,33.8%
same,content in blood plasma after oral administration,[10],not detected
